The assay has as its system M. Smegmatis ATCC607. Put plainly: In-vitro anti-bacterial activity against strain M. smegmatis ATCC607 (growth inhibition, Alamar Blue fluorescence). In kind it is cell-based. The following applies: 48 hours at 37° C.; for IC50: Mycolicibacterium smegmatis, read-out: M. smegmatis (pIC50) (converted). As to the method:
D.2. In-vitro Method for Testing Compounds for Anti-bacterial Activity Against Strain M. Smegmatis ATCC607. Flat-bottom, sterile 96well plastic microtiter plates were filled with 180 μl of sterile deionized water, supplemented with 0.25% BSA. Subsequently, stock solutions (7.8× final test concentration) of compounds were added in 45 μl volumes to a series of duplicate wells in column 2 so as to allow evaluation of their effects on bacterial growth. Serial five-fold dilutions (45 μl in 180 μl) were made directly in the microtiter plates from column 2 to 11 using a customised robot system (Zymark Corp., Hopkinton, Mass.). Pipette tips were changed after every 3 dilutions to minimize pipetting errors with high hydrophobic compounds. Untreated control samples with (column 1) and without (column 12) inoculum were included in each microtiter plate. Approximately 250 CFU per well of bacteria inoculum, in a volume of 100 μl in 2.8× Mueller-Hinton broth medium, was added to the rows […]. The same volume of broth medium without inoculum was added to column 12 in row A to H. The cultures were incubated at 37° C. for 48 hours in a humidified 5% CO2 atmosphere (incubator with open air valve and continuous ventilation). At the end of incubation, two days after inoculation, the bacterial growth was quantitated fluorometrically. Therefore Alamar Blue (10×) was added to all wells in a volume of 20 μl and plates were incubated for another 2 hours at […] The fluorescence was read in a computer-controlled fluorometer (Cytofluor, Biosearch) at an excitation wavelength of 530 nm and an emission wavelength of 590 nm (gain 30). The % growth inhibition achieved by the compounds was calculated according to standard methods. The pIC50 was defined as the 50% inhibitory concentration for bacterial growth.

The values that follow come from US7902225B2, “Mycobacterial inhibitors” (Janssen Pharmaceutica NV, priority 2005, dated 2011).

As for `COc1nc2cccc(C(O)(CCN(C)C)c3cc(F)cc(F)c3)c2cc1-c1ccccc1` (centres unmarked) [Compound 1], the IC50 is 1260 nM.

For `COc1nc2ccc(C(O)(CCN(C)C)c3cc(F)cc(F)c3)cc2cc1Cc1ccc(C)cc1` (centres unmarked) [Compound 2], the IC50 is 1260 nM. Take `CN(C)CCC(O)(Cc1c(Cc2ccccc2)c(N2CCCC2)nc2ccccc12)c1cc(F)cc(F)c1` (centres unmarked) [Compound 4]: the IC50 was 251 nM. Regarding `Cc1cc(-c2ccccc2)c2cc(C(O)(CCN(C)C)c3ccco3)ccc2n1` (centres unmarked) [Compound 6], the IC50 is 31600 nM.

With `CN(C)CCC(O)(c1cc(F)cc(F)c1)c1ccc2nc(-c3cccnc3)cc(-c3ccccc3)c2c1` (centres unmarked) [Compound 8], the IC50 was 1580 nM. Turning to `CN(C)CCC(O)(c1cc(F)cc(F)c1)c1cccc2nc(N(C)C)c(-c3ccccc3)cc12` (centres unmarked) [Compound 10], the IC50 was 2000 nM. Consider `COc1nc2c(C(O)(CCN(C)C)c3cc(F)cc(F)c3)cc(Br)cc2cc1-c1ccccc1` (centres unmarked) [Compound 12], for which the IC50 is 1580 nM. Still for that read-out and setting: with `COc1nc2c(C(O)(CCN(C)C)c3cc(F)cc(F)c3)cc(-c3cccnc3)cc2cc1-c1ccccc1` (centres unmarked) [Compound 13] the figure was 398 nM. Take `COc1nc2c(C(O)(CCN(C)C)c3cccs3)cc(Br)cc2cc1Cc1ccccc1` (centres unmarked) [Compound 15]: the IC50 was 7940 nM. As for `COc1nc2c(C(O)(CCN(C)C)c3cccs3)cc(C)cc2cc1Cc1ccccc1` (centres unmarked) [Compound 16], the IC50 was 1580 nM. For the compound `COc1nc2cccc(C(O)(CCN(C)C)c3cccc4ccccc34)c2cc1-c1ccccc1` (centres unmarked) [Compound 18], the IC50 is 1580 nM. Still for that read-out and setting: then `COc1nc2cccc(C(O)(CCN(C)C)c3ccc4ccccc4c3)c2cc1-c1ccccc1` (centres unmarked) [Compound 19], with 7940 nM. Still for that read-out and setting: then `COc1nc2cccc(C(O)(CCN(C)C)c3ccccc3)c2cc1-c1ccccc1` (centres unmarked) [Compound 20], with 31600 nM; and `COc1nc2cccc(C(O)(CCN(C)C)c3ccco3)c2cc1-c1ccccc1` (centres unmarked) [Compound 21], with 31600 nM. The same measure, in the same setting: with `COc1nc2c(C(O)(CCN(C)C)c3ccco3)cc(Br)cc2cc1-c1ccccc1` (centres unmarked) [Compound 26] the figure was 2000 nM. Consider `COc1cc(-c2ccccc2)c2cc(C(O)(CCN(C)C)c3ccccc3)ccc2n1` (centres unmarked) [Compound 27], for which the “M. smegmatis (pIC50)” value is 5.2. For `COc1nc2cccc(C(O)(CCN(C)C)c3c(F)cccc3F)c2cc1-c1ccccc1` (centres unmarked) [Compound 28], the “M. smegmatis (pIC50)” value worked out at 5.1.

Regarding `COc1cc(-c2ccccc2)c2cc(C(O)(CCN(C)C)c3ccco3)ccc2n1` (centres unmarked) [Compound 29], the IC50 was 31600 nM. Same read-out and setting: with `CN(C)CCC(O)(Cc1c(Cc2ccccc2)c(N2CCOCC2)nc2ccccc12)c1cc(F)cc(F)c1` (centres unmarked) [Compound 31] the figure was 1260 nM; with `CN(C)CCC(O)(c1cc(F)cc(F)c1)c1cccc2nc(N3CCN(C)CC3)c(-c3ccccc3)cc12` (centres unmarked) [Compound 32], 10000 nM. On the same count and under the same terms, then `CN(C)CCC(O)(c1cc(F)cc(F)c1)c1cccc2nc(-n3cncn3)c(-c3ccccc3)cc12` (centres unmarked) [Compound 33], with 31600 nM. Same read-out and setting: then `CN(C)CCC(O)(c1cccs1)c1cc(Br)cc2cc(Cc3ccccc3)c(N3CCN(C)CC3)nc12` (centres unmarked) [Compound 35], with 1580 nM; and `CN(C)CCC(O)(c1cccc2ccccc12)c1cccc2nc(N3CCN(C)CC3)c(-c3ccccc3)cc12` (centres unmarked) [Compound 36], with 10000 nM; and `CN(C)CCC(O)(c1ccccc1)c1cccc2nc(N3CCN(C)CC3)c(-c3ccccc3)cc12` (centres unmarked) [Compound 37], with 79400 nM. Regarding `CN(C)CCC(O)(Cc1c(-c2ccccc2)c(-c2ccco2)nc2ccccc12)c1cc(F)cc(F)c1` (centres unmarked) [Compound 39], the IC50 is 1260 nM. Still for that read-out and setting: with `CN(C)CCC(O)(Cc1c(Cc2ccccc2)c(-c2ccsc2)nc2ccccc12)c1cc(F)cc(F)c1` (centres unmarked) [Compound 40] the figure was 7940 nM; with `CN(C)CCC(O)(Cc1c(-c2ccccc2)c(-c2ccccc2)nc2ccccc12)c1cc(F)cc(F)c1` (centres unmarked) [Compound 41], 31600 nM. For the compound `CN(C)CCC(O)(Cc1c(Cc2ccccc2)c(-c2ccccc2)nc2ccccc12)c1cc(F)cc(F)c1` (centres unmarked) [Compound 42], the IC50 is 39800 nM. On the same count and under the same terms, with `Cc1cc(-c2ccccc2)c2cc(C(O)(CCN(C)C)c3ccccc3)ccc2n1` (centres unmarked) [Compound 43] the figure was 12600 nM; with `CN(C)CCC(O)(c1cc(F)cc(F)c1)c1cc(Br)cc2cc(-c3ccccc3)c(-n3ccnc3)nc12` (centres unmarked) [Compound 44], 1260 nM. Turning to `CN(C)CCC(O)(c1cccc2ccccc12)c1cc(Br)cc2cc(Cc3ccccc3)c(N3CCN(Cc4ccc5c(c4)OCO5)CC3)nc12` (centres unmarked) [Compound 45], the “M. smegmatis (pIC50)” value was 6.6. `CN(C)CCC(O)(c1cccc2ccccc12)c1cc(Br)cc2cc(Cc3ccccc3)c(-n3ccnc3)nc12` (centres unmarked) [Compound 46]: the “M. smegmatis (pIC50)” value turned out to be 6.6.

Regarding `CN(C)CCC(O)(c1cccc2ccccc12)c1cc(Br)cc2cc(Cc3ccccc3)c(N3CCN(Cc4ccccc4)CC3)nc12` (centres unmarked) [Compound 47], the IC50 was 398 nM. Consider `CN(C)CCC(O)(c1cccc2ccccc12)c1cc(Br)cc2cc(Cc3ccccc3)c(N3CCN(c4n[nH]c5ccccc45)CC3)nc12` (centres unmarked) [Compound 48], for which the IC50 was 631 nM. Consider `CN(C)CCC(O)(c1cccc2ccccc12)c1cc(Br)cc2cc(Cc3ccccc3)c(N3CCN(O)CC3)nc12` (centres unmarked) [Compound 49], for which the “M. smegmatis (pIC50)” value is recorded as 6.1. For the compound `CN(C)CCC(O)(c1cccc2ccccc12)c1cc(Br)cc2cc(Cc3ccccc3)c(N3CCc4ccccc4C3)nc12` (centres unmarked) [Compound 50], the IC50 is 794 nM.

In the case of `CN(C)CCC(O)(c1cccc2ccccc12)c1cc(Br)cc2cc(Cc3ccccc3)c(N3CCOCC3)nc12` (centres unmarked) [Compound 51], the IC50 is 1000 nM. The same measure, in the same setting: then `CN(C)CCC(O)(c1cccc2ccccc12)c1cc(Br)cc2cc(Cc3ccccc3)c(N3CCCC3)nc12` (centres unmarked) [Compound 52], with 1000 nM; and `CN(C)CCC(O)(c1cccs1)c1cc(Br)cc2cc(Cc3ccccc3)c(-n3ccnc3)nc12` (centres unmarked) [Compound 53], with 1260 nM; and `CN(C)CCC(O)(c1cccc2ccccc12)c1cc(Br)cc2cc(Cc3ccccc3)c(N3CCN(C(=O)c4ccco4)CC3)nc12` (centres unmarked) [Compound 54], with 1260 nM.

For the compound `CN(C)CCC(O)(c1ccccc1)c1cc2nc(N3CCN(Cc4ccccc4)CC3)c(Cc3ccccc3)cc2cc1Br` (centres unmarked) [Compound 55], the IC50 was 1260 nM. Consider `CN(C)CCC(O)(c1cccc2ccccc12)c1cc(Br)cc2cc(-c3ccccc3)c(-n3cncn3)nc12` (centres unmarked) [Compound 56], for which the “M. smegmatis (pIC50)” value was 5.8. On the same count and under the same terms, then `CN(C)CCC(O)(c1cccc2ccccc12)c1cc(Br)cc2cc(Cc3ccccc3)c(N(C)C)nc12` (centres unmarked) [Compound 57], with 5.8; and `CN(C)CCC(O)(c1ccccc1)c1cc2nc(N3CCCC3)c(Cc3ccccc3)cc2cc1Br` (centres unmarked) [Compound 58], with 5.8. For `CN(C)CCC(O)(c1ccccc1)c1cc(Br)cc2cc(Cc3ccccc3)c(-n3ccnc3)nc12` (centres unmarked) [Compound 59], the “M. smegmatis (pIC50)” value is given as 5.8. Take `CN(C)CCC(O)(c1ccccc1)c1cc2nc(N3CCN(Cc4ccc5c(c4)OCO5)CC3)c(Cc3ccccc3)cc2cc1Br` (centres unmarked) [Compound 60]: the IC50 is 2000 nM. In the case of `CN(C)CCC(O)(c1ccccc1)c1cc2nc(N3CCN(C)CC3)c(Cc3ccccc3)cc2cc1Br` (centres unmarked) [Compound 61], the “M. smegmatis (pIC50)” value is listed as 5.3. On the same count and under the same terms, then `CN(C)CCC(O)(c1ccccc1)c1cc(Br)cc2cc(Cc3ccccc3)c(-n3cncn3)nc12` (centres unmarked) [Compound 62], with 5.3. `CN(C)CCC(O)(c1ccco1)c1cc(Br)cc2cc(-c3ccccc3)c(-n3ccnc3)nc12` (centres unmarked) [Compound 63]: the IC50 is 6310 nM. Take `CN(C)CCC(O)(c1cccc2ccccc12)c1cc(Br)cc2cc(Cc3ccccc3)c(N3CCC(Cc4ccccc4)CC3)nc12` (centres unmarked) [Compound 64]: the “M. smegmatis (pIC50)” value is given as 5.2.

For the compound `CN(C)CCC(O)(c1ccccc1)c1cc(Br)cc2cc(Cc3ccccc3)c(-n3ccnn3)nc12` (centres unmarked) [Compound 65], the “M. smegmatis (pIC50)” value is 5.2. Take `CN(C)CCC(O)(c1ccccc1)c1cc(Br)cc2cc(-c3ccccc3)c(-n3cncn3)nc12` (centres unmarked) [Compound 66]: the IC50 is 12600 nM.

Turning to `CN(C)CCC(O)(c1ccccc1)c1cc2nc(N(C)C)c(Cc3ccccc3)cc2cc1Br` (centres unmarked) [Compound 67], the IC50 was 20000 nM. Regarding `CN(C)CCC(O)(c1ccco1)c1cc(Br)cc2cc(-c3ccccc3)c(-n3cncn3)nc12` (centres unmarked) [Compound 68], the IC50 was 31600 nM. For `CN(C)CCC(O)(c1cccc2ccccc12)c1cc(Br)cc2cc(Cc3ccccc3)c(N3CCN(C(c4ccccc4)c4ccccc4)CC3)nc12` (centres unmarked) [Compound 69], the IC50 was 39800 nM. As for `CN(C)CCC(O)(c1ccccc1)c1ccc2nc(-c3cccnc3)cc(-c3ccccc3)c2c1` (centres unmarked) [Compound 71], the IC50 was 1580 nM.

Regarding `CN(C)CCC(O)(c1ccc2nc(-c3cccnc3)cc(-c3ccccc3)c2c1)c1ccco1` (centres unmarked) [Compound 72], the IC50 is 6310 nM. The same measure, in the same setting: then `CN(C)CCC(O)(c1cccs1)c1cc(Br)cc2cc(Cc3ccccc3)c(N(C)C)nc12` (centres unmarked) [Compound 73], with 1580 nM; and `CN(C)CCC(O)(c1ccccc1)c1cc(-c2cccnc2)cc2cc(-c3ccccc3)c(-c3cccnc3)nc12` (centres unmarked) [Compound 76], with 1580 nM.
